Assay results as given in patent publication US20140274688A1, “MOLECULES HAVING CERTAIN PESTICIDAL UTILITIES, AND INTERMEDIATES, COMPOSITIONS, AND PROCESSES RELATED THERETO” (DOW AGROSCIENCES LLC, priority 2013, published 2014).

Experiments:
[1] = tested on: Cabbage Looper (Trichoplusia ni) ("CL"); test: Bioassay on Cabbage Looper (CL), 128-well diet tray assay, percent mortality; assay type: in vivo; conditions: for pest or weed control at 50 µg/cm2: Trichoplusia ni, read-out: CL; for CL rating (percent mortality class): Cabbage Looper, 128-well diet tray assay
Summary of the method: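 Larvae held in covered diet trays at 25 °C, 14:10 light-dark, for five to seven days. Percent mortality scored per well and averaged over eight wells.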

[2] = tested on: Beet Armyworm (Spodoptera exigua) ("BAW"); test: Bioassay on Beet Armyworm (BAW), 128-well diet tray assay, percent mortality; assay type: in vivo; conditions: for pest or weed control at 50 µg/cm2: Spodoptera exigua, read-out: BAW; for BAW rating (percent mortality class): Beet Armyworm, 128-well diet tray assay
Summary of the method: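 Larvae in covered diet trays held at 25 °C, 14:10 light-dark, for five to seven days. Percent mortality scored per well and averaged over eight wells per treatment.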

[3] = tested on: Yellow Fever Mosquito "YFM" (Aedes aegypti); conditions: for YFM: Table ABC (P), rating of mortality, Yellow Fever Mosquito; for YFM rating (mortality class): Yellow Fever Mosquito larvae, 96-well plates

| SMILES | pest or weed control at 50 µg/cm2 [1] [%] | pest or weed control at 50 µg/cm2 [2] [%] | YFM [3] | CL rating (percent mortality class) [1] | BAW rating (percent mortality class) [2] | YFM rating (mortality class) [3] |
| --- | --- | --- | --- | --- | --- | --- |
| COc1ccc(N2C(=O)CS/C2=N\C(=O)NCCc2ccc(-c3ncn(-c4ccc(OC(F)(F)F)cc4)n3)cc2)c(C)c1 [P44, (Z)-1-(3-(4-methoxy-2-methylphenyl)-4-oxothiazolidin-2-ylidene)-3-(4-(1-(4-(trifluoromethoxy)phenyl)-1H-1,2,4-triazol-3-yl)phenethyl)urea] | 50 to 100 | 50 to 100 | A (80-100) | – | – | – |
| CC(C)c1ccccc1N1C(=O)CS/C1=N\C(=O)NCC(C)c1ccc(-c2ncn(-c3ccc(OC(F)(F)F)cc3)n2)cc1 (stereo not drawn) [P205, (Z)-1-(3-(2-isopropylphenyl)-4-oxothiazolidin-2-ylidene)-3-(2-(4-(1-(4-(trifluoromethoxy)phenyl)-1H-1,2,4-triazol-3-yl)phenyl)propyl)urea] | 50 to 100 | 50 to 100 | A (80-100) | – | – | – |
| CC(C)c1cc(F)ccc1N1C(=O)CS/C1=N\C(=O)NCCc1ccc(-c2ncn(-c3ccc(OC(F)(F)F)cc3)n2)cc1 [P28, (Z)-1-(3-(4-fluoro-2-isopropylphenyl)-4-oxothiazolidin-2-ylidene)-3-(4-(1-(4-(trifluoromethoxy)phenyl)-1H-1,2,4-triazol-3-yl)phenethyl)urea] | 50 to 100 | 50 to 100 | A (80-100) | – | – | – |
| Cc1ccc(N2C(=O)CS/C2=N\C(=O)NCCc2ccc(-c3ncn(-c4ccc(OC(F)(F)F)cc4)n3)cc2)c(C(C)C)c1 [P26, (Z)-1-(3-(2-isopropyl-4-methylphenyl)-4-oxothiazolidin-2-ylidene)-3-(4-(1-(4-(trifluoromethoxy)phenyl)-1H-1,2,4-triazol-3-yl)phenethyl)urea] | 50 to 100 | 50 to 100 | A (80-100) | – | – | – |
| COc1ccc(N2C(=O)CS/C2=N\C(=O)NC(C)Cc2ccc(-c3ncn(-c4ccc(OC(F)(F)F)cc4)n3)cc2)c(C)c1 (stereo not drawn) [P45, (Z)-1-(3-(4-methoxy-2-methylphenyl)-4-oxothiazolidin-2-ylidene)-3-(1-(4-(1-(4-(trifluoromethoxy)phenyl)-1H-1,2,4-triazol-3-yl)phenyl)propan-2-yl)urea] | 50 to 100 | 50 to 100 | A (80-100) | – | – | – |
| Cc1ccc(C(C)C)c(N2C(=O)CS/C2=N\C(=O)NCCc2ccc(-c3ncn(-c4ccc(C(F)(F)F)cc4)n3)cc2)c1 [P52, (Z)-1-(3-(2-isopropyl-5-methylphenyl)-4-oxothiazolidin-2-ylidene)-3-(4-(1-(4-(trifluoromethyl)phenyl)-1H-1,2,4-triazol-3-yl)phenethyl)urea] | 50 to 100 | 50 to 100 | A (80-100) | – | – | – |
| CCc1cccc(C)c1N1C(=O)CS/C1=N\C(=O)NCCc1ccc(-c2ncn(-c3ccc(OC(F)(F)F)cc3)n2)cc1 [P50, (Z)-1-(3-(2-ethyl-6-methylphenyl)-4-oxothiazolidin-2-ylidene)-3-(4-(1-(4-(trifluoromethoxy)phenyl)-1H-1,2,4-triazol-3-yl)phenethyl)urea] | 50 to 100 | 50 to 100 | A (80-100) | – | – | – |
| CCc1cc(C)ccc1N1C(=O)CS/C1=N\C(=O)NCCc1ccc(-c2ncn(-c3ccc(OC(F)(F)F)cc3)n2)cc1 [P31, (Z)-1-(3-(2-ethyl-4-methylphenyl)-4-oxothiazolidin-2-ylidene)-3-(4-(1-(4-(trifluoromethoxy)phenyl)-1H-1,2,4-triazol-3-yl)phenethyl)urea] | 50 to 100 | 50 to 100 | A (80-100) | – | – | – |
| Cc1ccc(C(C)C)c(N2C(=O)CS/C2=N\C(=O)NCCCc2ccc(-c3ncn(-c4ccc(OC(F)(F)F)cc4)n3)cc2)c1 [F20, (Z)-1-(3-(2-isopropyl-5-methylphenyl)-4-oxothiazolidin-2-ylidene)-3-(3-(4-(1-(4-(trifluoromethoxy)phenyl)-1H-1,2,4-triazol-3-yl)phenyl)propyl)urea] | – | – | – | A (50-100) | A (50-100) | A (80-100) |
| Cc1ccc(C(C)C)c(NC(=S)NC(=O)NCCCc2ccc(-c3ncn(-c4ccc(OC(F)(F)F)cc4)n3)cc2)c1 [F21, 1-[(2-isopropyl-5-methyl-phenyl)carbamothioyl]-3-[3-[4-[1-[4-(trifluoromethoxy)phenyl]-1,2,4-triazol-3-yl]phenyl]propyl]urea] | – | – | – | A (50-100) | A (50-100) | A (80-100) |
| CCCc1ccc(C)cc1N1C(=O)CS/C1=N\C(=O)NCCc1ccc(-c2ncn(-c3ccc(OC(F)(F)F)cc3)n2)cc1 [P29, (Z)-1-(3-(5-methyl-2-propylphenyl)-4-oxothiazolidin-2-ylidene)-3-(4-(1-(4-(trifluoromethoxy)phenyl)-1H-1,2,4-triazol-3-yl)phenethyl)urea] | 50 to 100 | 50 to 100 | A (80-100) | – | – | – |
| CC(C)(C)c1ccccc1N1C(=O)CS/C1=N\C(=O)NCCc1ccc(-c2ncn(-c3ccc(OC(F)(F)F)cc3)n2)cc1 [P30, (Z)-1-(3-(2-(tert-butyl)phenyl)-4-oxothiazolidin-2-ylidene)-3-(4-(1-(4-(trifluoromethoxy)phenyl)-1H-1,2,4-triazol-3-yl)phenethyl)urea] | 50 to 100 | 50 to 100 | A (80-100) | – | – | – |
| COc1cc(C)c(N2C(=O)CS/C2=N\C(=O)NCCc2ccc(-c3ncn(-c4ccc(OC(F)(F)F)cc4)n3)cc2)c(C)c1 [P47, (Z)-1-(3-(4-methoxy-2,6-dimethylphenyl)-4-oxothiazolidin-2-ylidene)-3-(4-(1-(4-(trifluoromethoxy)phenyl)-1H-1,2,4-triazol-3-yl)phenethyl)urea] | 50 to 100 | 50 to 100 | A (80-100) | – | – | – |
| COc1ccc(C(C)C)c(N2C(=O)CS/C2=N\C(=O)NCCc2ccc(-c3ncn(-c4ccc(C(F)(F)F)cc4)n3)cc2)c1 [P53, (Z)-1-(3-(2-isopropyl-5-methoxyphenyl)-4-oxothiazolidin-2-ylidene)-3-(4-(1-(4-(trifluoromethyl)phenyl)-1H-1,2,4-triazol-3-yl)phenethyl)urea] | 50 to 100 | 50 to 100 | A (80-100) | – | – | – |
| Cc1ccccc1N1C(=O)CS/C1=N\C(=O)NCCCCc1ccc(-c2ncn(-c3ccc(OC(F)(F)F)cc3)n2)cc1 [P144, (Z)-1-(4-oxo-3-(o-tolyl)thiazolidin-2-ylidene)-3-(4-(4-(1-(4-(trifluoromethoxy)phenyl)-1H-1,2,4-triazol-3-yl)phenyl)butyl)urea] | 50 to 100 | 50 to 100 | A (80-100) | – | – | – |
| CC(C)c1ccccc1N1C(=O)CS/C1=N\C(=O)NC1CC1c1ccc(-c2ncn(-c3ccc(OC(F)(F)F)cc3)n2)cc1 (stereo not drawn) [F29, (Z)-1-(3-(2-isopropylphenyl)-4-oxothiazolidin-2-ylidene)-3-(2-(4-(1-(4-(trifluoromethoxy)phenyl)-1H-1,2,4-triazol-3-yl)phenyl)cyclopropyl)urea] | – | – | – | A (50-100) | A (50-100) | A (80-100) |
| CC(C)c1ccccc1NC(=S)NC(=O)NCc1ccc(-c2ncn(-c3ccc(OC(F)(F)F)cc3)n2)cc1 [F14, N-[2-(propan-2-yl)phenyl]-N′-(4-{1-[4-(trifluoromethoxy)phenyl]-1H-1,2,4-triazol-3-yl}benzyl)dicarbonimidothioic diamide] | – | – | – | A (50-100) | A (50-100) | A (80-100) |
| Cc1cccc(N2C(=O)CS/C2=N\C(=O)NCCc2ccc(-c3ncn(-c4ccc(OC(F)(F)F)cc4)n3)cc2)c1C(C)C [P27, (Z)-1-(3-(2-isopropyl-3-methylphenyl)-4-oxothiazolidin-2-ylidene)-3-(4-(1-(4-(trifluoromethoxy)phenyl)-1H-1,2,4-triazol-3-yl)phenethyl)urea] | 50 to 100 | 50 to 100 | A (80-100) | – | – | – |
| Cc1ccc(C(C)C)c(N2C(=O)CS/C2=N\C(=O)NCCc2ccc(-c3ncn(-c4ccc(OC(F)(F)C(F)(F)F)cc4)n3)cc2)c1 [F9, (Z)-1-(3-(2-isopropyl-5-methylphenyl)-4-oxothiazolidin-2-ylidene)-3-(4-(1-(4-(perfluoroethoxy)phenyl)-1H-1,2,4-triazol-3-yl)phenethyl)urea] | – | – | – | A (50-100) | A (50-100) | A (80-100) |
| CC(Cc1ccc(-c2ncn(-c3ccc(OC(F)(F)F)cc3)n2)cc1)NC(=O)/N=C1\SCC(=O)N1c1ccc(F)cc1C(C)C (stereo not drawn) [P33, (Z)-1-(3-(4-fluoro-2-isopropylphenyl)-4-oxothiazolidin-2-ylidene)-3-(1-(4-(1-(4-(trifluoromethoxy)phenyl)-1H-1,2,4-triazol-3-yl)phenyl)propan-2-yl)urea] | 50 to 100 | 50 to 100 | A (80-100) | – | – | – |
| Cc1ccc(C(C)C)c(N2C(=O)CS/C2=N\C(=O)NCCC#Cc2ccc(-c3ncn(-c4ccc(OC(F)(F)F)cc4)n3)cc2)c1 [P160, (Z)-1-(3-(2-isopropyl-5-methylphenyl)-4-oxothiazolidin-2-ylidene)-3-(4-(4-(1-(4-(trifluoromethoxy)phenyl)-1H-1,2,4-triazol-3-yl)phenyl)but-3-yn-1-yl)urea] | 50 to 100 | 50 to 100 | B (More than 0-Less than 80) | – | – | – |
